Source: ChEMBL document CHEMBL3885861, “Open TG-GATES”

Species: Rattus norvegicus
Experiment: Open TG-GATES - Regimen: Daily Repeat
Type: toxicity, organism-based, Sprague-Dawley
Design: regimen Daily Repeat, gender Male, age 6 weeks
Conditions: in vivo, po, 100 mg/kg, route gavage, dose level Middle; for APTT / Bas / Eos / Fbg / Hb / Ht / Lym / MCH / MCHC / MCV / Mono / Neu / PT / Plat / RBC / Ret / WBC: tissue Blood; for KIDNEY_L / KIDNEY_R / KIDNEY_TOTAL: tissue Kidney; for LIVER: tissue Liver; for A/G / ALP / ALT / AST / BUN / CRE / Ca / Cl / DBIL / GLC / IP / K / LDH / Na / PL / RALB / TBIL / TC / TG / TP / gamma-GTP: tissue Plasma

With `O=C(O)COc1nn(Cc2ccccc2)c2ccccc12` [BENDAZAC] the TERMINAL_BW (72 h, time 3 day) was 231.3 g, the APTT (72 h, time 3 day) was 17.2 s and the Bas (72 h, time 3 day) was 0%. For the same compound, the Eos (72 h, time 3 day) was 1%, the Fbg (72 h, time 3 day) was 205 mg/dL and the Hb (72 h, time 3 day) was 13.5 g/dL. The Ht (72 h, time 3 day) was 40.4%, the Lym (72 h, time 3 day) was 80.6% and the MCH (72 h, time 3 day) was 21.6 pg. It also gave an MCHC (72 h, time 3 day) of 33.4%, an MCV (72 h, time 3 day) of 64.8 fL and a Mono (72 h, time 3 day) of 6.8%. It also gave a Neu (72 h, time 3 day) of 11.8%, a PT (72 h, time 3 day) of 11.8 s and a Plat (72 h, time 3 day) of 116.4 x10_4/uL. For the same compound, the RBC (72 h, time 3 day) was 624.4 x10_4/ul, the Ret (72 h, time 3 day) was 7.1% and the WBC (72 h, time 3 day) was 112.6 x10_2/uL. It also gave a KIDNEY_L (72 h, time 3 day) of 1 g, a KIDNEY_R (72 h, time 3 day) of 1.1 g and a KIDNEY_TOTAL (72 h, time 3 day) of 2.1 g. It also gave an LIVER (72 h, time 3 day) of 11.7 g, an A/G (72 h, time 3 day) of 2 and an ALP (72 h, time 3 day) of 987.2 IU/L. For the same compound, the ALT (72 h, time 3 day) was 39.8 IU/L, the AST (72 h, time 3 day) was 65.6 IU/L and the BUN (72 h, time 3 day) was 15.8 mg/dL. It also gave a CRE (72 h, time 3 day) of 0.6 mg/dL, a Ca (72 h, time 3 day) of 10.8 mg/dL and a Cl (72 h, time 3 day) of 104.2 meq/L. The DBIL (72 h, time 3 day) was 0.048 mg/dL, the GLC (72 h, time 3 day) was 199.8 mg/dL and the IP (72 h, time 3 day) was 7 mg/dL. For the same compound, the K (72 h, time 3 day) was 4.5 meq/L, the LDH (72 h, time 3 day) was 107.6 IU/L and the Na (72 h, time 3 day) was 140 meq/L. It also gave a PL (72 h, time 3 day) of 153.6 mg/dL, an RALB (72 h, time 3 day) of 3.8 g/dL and a TBIL (72 h, time 3 day) of 0.4 mg/dL. It also gave a TC (72 h, time 3 day) of 82 mg/dL, a TG (72 h, time 3 day) of 79.8 mg/dL and a TP (72 h, time 3 day) of 5.7 g/dL. For the same compound, the gamma-GTP (72 h, time 3 day) was 1 IU/L, the TERMINAL_BW ([…], time 7 day) was 259.9 g and the TERMINAL_BW ([…], time 14 day) was 309.7 g. For the same compound, the TERMINAL_BW ([…], time 28 day) was 386.1 g, the APTT ([…], time 7 day) was 17.3 s and the Bas ([…], time 7 day) was 0%. For the same compound, the Eos ([…], time 7 day) was 1.2%, the Fbg ([…], time 7 day) was 229.2 mg/dL and the Hb ([…], time 7 day) was 14.1 g/dL. The Ht ([…], time 7 day) was 41%, the Lym ([…], time 7 day) was 76.8% and the MCH ([…], time 7 day) was 21.7 pg. The MCHC ([…], time 7 day) was 34.3%, the MCV ([…], time 7 day) was 63.2 fL and the Mono ([…], time 7 day) was 8.4%. It also gave a Neu ([…], time 7 day) of 14%, a PT ([…], time 7 day) of 11.7 s and a Plat ([…], time 7 day) of 139.2 x10_4/uL. For the same compound, the RBC ([…], time 7 day) was 649.8 x10_4/ul, the Ret ([…], time 7 day) was 6.8% and the WBC ([…], time 7 day) was 114.5 x10_2/uL. It also gave an APTT ([…], time 14 day) of 17.7 s, a Bas ([…], time 14 day) of 0% and an Eos ([…], time 14 day) of 1%. It also gave a Fbg ([…], time 14 day) of 213.4 mg/dL, a Hb ([…], time 14 day) of 14.6 g/dL and a Ht ([…], time 14 day) of 43.2%. It also gave a Lym ([…], time 14 day) of 83.2%, an MCH ([…], time 14 day) of 20.5 pg and an MCHC ([…], time 14 day) of 33.9%. The MCV ([…], time 14 day) was 60.4 fL, the Mono ([…], time 14 day) was 4.8% and the Neu ([…], time 14 day) was 11.4%. It also gave a PT ([…], time 14 day) of 11.4 s, a Plat ([…], time 14 day) of 126.3 x10_4/uL and an RBC ([…], time 14 day) of 715 x10_4/ul. For the same compound, the Ret ([…], time 14 day) was 2.9%, the WBC ([…], time 14 day) was 124.2 x10_2/uL and the APTT ([…], time 28 day) was 18.1 s. It also gave a Bas ([…], time 28 day) of 0%, an Eos ([…], time 28 day) of 1.2% and a Fbg ([…], time 28 day) of 216.6 mg/dL. The Hb ([…], time 28 day) was 15.6 g/dL, the Ht ([…], time 28 day) was 45.8% and the Lym ([…], time 28 day) was 87%. It also gave an MCH ([…], time 28 day) of 19.5 pg, an MCHC ([…], time 28 day) of 34% and an MCV ([…], time 28 day) of 57.2 fL. It also gave a Mono ([…], time 28 day) of 2.2%, a Neu ([…], time 28 day) of 9% and a PT ([…], time 28 day) of 12 s. It also gave a Plat ([…], time 28 day) of 113.7 x10_4/uL, an RBC ([…], time 28 day) of 801.2 x10_4/ul and a Ret ([…], time 28 day) of 2.2%. For the same compound, the WBC ([…], time 28 day) was 131.2 x10_2/uL, the KIDNEY_L ([…], time 7 day) was 1.2 g and the KIDNEY_R ([…], time 7 day) was 1.1 g. For the same compound, the KIDNEY_TOTAL ([…], time 7 day) was 2.3 g, the KIDNEY_L ([…], time 14 day) was 1.2 g and the KIDNEY_R ([…], time 14 day) was 1.3 g. It also gave a KIDNEY_TOTAL ([…], time 14 day) of 2.5 g, a KIDNEY_L ([…], time 28 day) of 1.4 g and a KIDNEY_R ([…], time 28 day) of 1.4 g. For the same compound, the KIDNEY_TOTAL ([…], time 28 day) was 2.8 g, the LIVER ([…], time 7 day) was 13.1 g and the LIVER ([…], time 14 day) was 14.8 g. It also gave an LIVER ([…], time 28 day) of 17.3 g, an A/G ([…], time 7 day) of 2 and an ALP ([…], time 7 day) of 927.8 IU/L. For the same compound, the ALT ([…], time 7 day) was 31.6 IU/L, the AST ([…], time 7 day) was 55.8 IU/L and the BUN ([…], time 7 day) was 18.8 mg/dL. The CRE ([…], time 7 day) was 0.5 mg/dL, the Ca ([…], time 7 day) was 11.1 mg/dL and the Cl ([…], time 7 day) was 105.6 meq/L. For the same compound, the DBIL ([…], time 7 day) was 0.014 mg/dL, the GLC ([…], time 7 day) was 206 mg/dL and the IP ([…], time 7 day) was 6.6 mg/dL. The K ([…], time 7 day) was 4.4 meq/L, the LDH ([…], time 7 day) was 110.8 IU/L and the Na ([…], time 7 day) was 140.6 meq/L. It also gave a PL ([…], time 7 day) of 141 mg/dL, an RALB ([…], time 7 day) of 3.8 g/dL and a TBIL ([…], time 7 day) of 0.4 mg/dL. For the same compound, the TC ([…], time 7 day) was 71.8 mg/dL, the TG ([…], time 7 day) was 108.6 mg/dL and the TP ([…], time 7 day) was 5.7 g/dL. For the same compound, the gamma-GTP ([…], time 7 day) was 1 IU/L, the A/G ([…], time 14 day) was 1.6 and the ALP ([…], time 14 day) was 909.2 IU/L. The ALT ([…], time 14 day) was 32.2 IU/L, the AST ([…], time 14 day) was 63 IU/L and the BUN ([…], time 14 day) was 18.8 mg/dL. The CRE ([…], time 14 day) was 0.6 mg/dL, the Ca ([…], time 14 day) was 10.3 mg/dL and the Cl ([…], time 14 day) was 106 meq/L. For the same compound, the DBIL ([…], time 14 day) was 0.04 mg/dL, the GLC ([…], time 14 day) was 198.6 mg/dL and the IP ([…], time 14 day) was 6.5 mg/dL. For the same compound, the K ([…], time 14 day) was 4.5 meq/L, the LDH ([…], time 14 day) was 108 IU/L and the Na ([…], time 14 day) was 140.8 meq/L. For the same compound, the PL ([…], time 14 day) was 145.6 mg/dL, the RALB ([…], time 14 day) was 3.8 g/dL and the TBIL ([…], time 14 day) was 0.4 mg/dL. The TC ([…], time 14 day) was 68 mg/dL, the TG ([…], time 14 day) was 125.4 mg/dL and the TP ([…], time 14 day) was 6.2 g/dL. For the same compound, the gamma-GTP ([…], time 14 day) was 1.8 IU/L, the A/G ([…], time 28 day) was 1.4 and the ALP ([…], time 28 day) was 669.2 IU/L. For the same compound, the ALT ([…], time 28 day) was 31.4 IU/L, the AST ([…], time 28 day) was 62.4 IU/L and the BUN ([…], time 28 day) was 20 mg/dL. For the same compound, the CRE ([…], time 28 day) was 0.6 mg/dL, the Ca ([…], time 28 day) was 9.7 mg/dL and the Cl ([…], time 28 day) was 103.8 meq/L. It also gave a DBIL ([…], time 28 day) of 0.02 mg/dL, a GLC ([…], time 28 day) of 189.2 mg/dL and an IP ([…], time 28 day) of 5.7 mg/dL. For the same compound, the K ([…], time 28 day) was 4.4 meq/L, the LDH ([…], time 28 day) was 102.8 IU/L and the Na ([…], time 28 day) was 139.6 meq/L. The PL ([…], time 28 day) was 136.8 mg/dL, the RALB ([…], time 28 day) was 3.7 g/dL and the TBIL ([…], time 28 day) was 0.4 mg/dL. The TC ([…], time 28 day) was 61.4 mg/dL, the TG ([…], time 28 day) was 154.4 mg/dL and the TP ([…], time 28 day) was 6.2 g/dL. For the same compound, the gamma-GTP ([…], time 28 day) was 1.2 IU/L.
